Like-named read-outs stand apart in the source and are kept apart here.
Experiment: Solubility of compound represented by formula I in different solvents
Assay type: physicochemical
Settings: for solubility at 30 min: thermodynamic from solid, read-out: Approximate Solubility
Experimental: Referring to tests under the General Notices, Volume II, Chinese Pharmacopoeia 2010, excessive compounds represented by formula I which were grinded to fine powder were weighed and transferred in a certain amount of solvent (25° C.±2° C.), and shaken vigorously for 30 s every 5 min. The dissolution of the drug was observed within 30 min. Then the solution was filtered, the initial filtrate was discarded, and the concentration of the successive filtrate was tested. The solubility was calculated.

Solubility (descriptive term) (Acetone): slightly soluble
Solubility (descriptive term) (Anhydrous Ethanol): very slightly soluble
Solubility (descriptive term) (Tetrahydrofuran): slightly soluble
solubility at 30 min (aqueous buffer, Acetate Buffer pH 4.5, 25° C.±2° C.): 0.85 µg/mL
solubility at 30 min (aqueous buffer, Phosphate Buffer pH 6.8, 25° C.±2° C.): 0.59 µg/mL
solubility at 30 min (aqueous with cosolvent or surfactant or cyclodextrin, 5% Polysorbate 80 Aqueous Solution, 25° C.±2° C.): 19.5 µg/mL
Solubility (descriptive term) (conventional aqueous solvents): practically insoluble
solubility at 30 min (organic solvent or mixture, Acetone, 25° C.±2° C.): 4960 µg/mL
solubility at 30 min (organic solvent or mixture, Anhydrous Ethanol, 25° C.±2° C.): 458 µg/mL
solubility at 30 min (organic solvent or mixture, Tetrahydrofuran, 25° C.±2° C.): 8550 µg/mL
solubility at 30 min (simulated gastric fluid, 0.1 mol/L Hydrochloric Acid, 25° C.±2° C.): 0.78 µg/mL
Compound: O=C(c1cc(Cc2n[nH]c(=O)c3ccccc23)ccc1F)N1CCn2nc(C(F)(F)F)nc2C1 [Compound represented by formula I]

— patent US12318385B2, “Pharmaceutical composition comprising PARP inhibitors” (Jiangsu Hengrui Medicine CO., LTD., priority 2018, dated 2025)
